In the test the test system is L1210 leukemia ip in BDF1 mice, survival T/C. As to the kind of experiment: NCI In Vivo Anticancer Drug Screen. Data for tumor model L1210 Leukemia (intraperitoneal) in B6D2F1 (BDF1) mice. Particulars: endpoint: mean survival time, higher = longer survival. In a few lines: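 Tumor was transplanted into mice, which were then dosed with test compound or vehicle alone. Survival was recorded for each group, and the treated figure was expressed relative to the control figure.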

Where [1] appears, read: dose: 100.0 mg/kg/injection, schedule: Q01DX001 (ip), vehicle: saline.
Where [2] appears, read: dose: 200.0 mg/kg/injection, schedule: Q01DX001 (ip), vehicle: saline.
The mark [3] stands for this setting: dose: 400.0 mg/kg/injection, schedule: Q01DX001 (ip), vehicle: saline.
Where [4] appears, read: dose: 100.0 mg/kg/injection, schedule: Q04DX003 (ip), vehicle: saline with Tween-80.
The mark [5] stands for this setting: dose: 200.0 mg/kg/injection, schedule: Q04DX003 (ip), vehicle: saline with Tween-80.
Setting [6] is: dose: 400.0 mg/kg/injection, schedule: Q04DX003 (ip), vehicle: saline with Tween-80.
Setting [7] is: dose: 100.0 mg/kg/injection, schedule: Q01DX001 (ip), vehicle: saline with Tween-80.
Setting [8] is: dose: 200.0 mg/kg/injection, schedule: Q01DX001 (ip), vehicle: saline with Tween-80.
Where [9] appears, read: dose: 400.0 mg/kg/injection, schedule: Q01DX001 (ip), vehicle: saline with Tween-80.

Where “and” joins values, the source holds several entries; their conditions need not be identical. Identical values can stand only once. Inconclusive results and toxic doses are left out.

For the compound `COC(=O)c1ccccc1C(=O)c1ccccc1`, the T/C reads like this: (dose: 100.0 mg/kg/injection, schedule: Q04DX003 (ip), vehicle: carboxymethylcellulose (CMC)) 101 % of control; (dose: 200.0 mg/kg/injection, schedule: Q04DX003 (ip), vehicle: carboxymethylcellulose (CMC)) 102 % of control; (dose: 400.0 mg/kg/injection, schedule: Q04DX003 (ip), vehicle: carboxymethylcellulose (CMC)) 96 % of control.

In the case of `CCOC(=O)c1[nH]c(C)c(/C=C/C(=O)O)c1C`, the T/C is 98 % of control (dose: 25.0 mg/kg/injection, schedule: Q04DX003 (ip), vehicle: Klucel (hydroxypropylcellulose) (HPC)); 95 % of control (dose: 50.0 mg/kg/injection, schedule: Q04DX003 (ip), vehicle: Klucel (hydroxypropylcellulose) (HPC)); 106 % of control (dose: 100.0 mg/kg/injection, schedule: Q01DX001 (ip), vehicle: Klucel (hydroxypropylcellulose) (HPC)); 101 % of control (dose: 100.0 mg/kg/injection, schedule: Q04DX003 (ip), vehicle: Klucel (hydroxypropylcellulose) (HPC)); 98 % of control (dose: 200.0 mg/kg/injection, schedule: Q01DX001 (ip), vehicle: Klucel (hydroxypropylcellulose) (HPC)); 98 % of control (dose: 400.0 mg/kg/injection, schedule: Q01DX001 (ip), vehicle: Klucel (hydroxypropylcellulose) (HPC)).

Take `NNP(=O)(c1ccccc1)c1ccccc1`: the T/C reads like this: under setting [1], 108 % of control; under setting [2], 102 % of control; under setting [3], 102 % of control.

Take `CCn1ccc2c(N)ncnc21`: under “dose: 50.0 mg/kg/injection, schedule: Q01DX001 (ip), vehicle: saline”, the T/C is 95 % of control.

On to `O=C(O)CCCCCCCCC1CC(F)(F)C(F)(F)S1` (stereo not drawn), for which the T/C was 92 % of control under setting [4], 96 % of control under setting [5] and 92 % of control under setting [6].

Consider `Nc1ccc(Cn2ccc(=O)[nH]c2=O)cc1`, for which the T/C was 102 % of control under setting [7], 94 % of control under setting [8] and 87 % of control under setting [9].

For the compound `COc1ccc(OC)c(NC(=O)Nc2ccc(F)cc2)c1`, the T/C runs as follows: (dose: 12.5 mg/kg/injection, schedule: Q01DX001 (ip), vehicle: carboxymethylcellulose (CMC)) 98 % of control; (dose: 12.5 mg/kg/injection, schedule: Q01DX009 (ip), vehicle: carboxymethylcellulose (CMC)) 92 % of control and 94 % of control; (dose: 12.5 mg/kg/injection, schedule: Q04DX002 (ip), vehicle: carboxymethylcellulose (CMC)) 110 % of control; (dose: 12.5 mg/kg/injection, schedule: Q04DX003 (ip), vehicle: carboxymethylcellulose (CMC)) 95 % of control; (dose: 25.0 mg/kg/injection, schedule: Q01DX001 (ip), vehicle: carboxymethylcellulose (CMC)) 103 % of control; (dose: 25.0 mg/kg/injection, schedule: Q01DX009 (ip), vehicle: carboxymethylcellulose (CMC)) 95 % of control and 99 % of control. For the same compound, the T/C was 98 % of control and 100 % of control (dose: 25.0 mg/kg/injection, schedule: Q04DX002 (ip), vehicle: carboxymethylcellulose (CMC)); 91 % of control (dose: 25.0 mg/kg/injection, schedule: Q04DX003 (ip), vehicle: carboxymethylcellulose (CMC)); 95 % of control (dose: 50.0 mg/kg/injection, schedule: Q01DX001 (ip), vehicle: carboxymethylcellulose (CMC)); 92 % of control and 89 % of control (dose: 50.0 mg/kg/injection, schedule: Q01DX009 (ip), vehicle: carboxymethylcellulose (CMC)); 97 % of control (dose: 50.0 mg/kg/injection, schedule: Q04DX002 (ip), vehicle: carboxymethylcellulose (CMC)); 93 % of control (dose: 50.0 mg/kg/injection, schedule: Q04DX003 (ip), vehicle: carboxymethylcellulose (CMC)).

As for `CC1(Cl)CCC(C(C)(C)Cl)CC1` (stereo not drawn), the T/C was 101 % of control under setting [1], 90 % of control under setting [2] and 90 % of control under setting [3].

As to `CC1(C)OCC(C2OC(c3ccccc3)OC(CO)C2O)O1` (stereo not drawn), the T/C (dose: 12.5 mg/kg/injection, schedule: Q04DX002 (ip), vehicle: saline with Tween-80) is 87 % of control; the T/C (dose: 25.0 mg/kg/injection, schedule: Q04DX002 (ip), vehicle: saline with Tween-80) is 101 % of control; the T/C (dose: 50.0 mg/kg/injection, schedule: Q04DX002 (ip), vehicle: saline with Tween-80) was 100 % of control.

On to `COc1ccc(C=Nc2ccccc2C(=O)O)cc1`, for which the T/C under setting [7] is 108 % of control, the T/C under setting [8] was 105 % of control and the T/C under setting [9] was 93 % of control.

As for `O=C(NC1=NCCS1)C(=O)NC1=NCCS1`, the T/C runs as follows: under setting [4], 105 % of control; under setting [5], 100 % of control; under setting [6], 97 % of control.

Consider `NC(=O)c1[nH]cnc1/N=N/N(CCF)CCF`, for which the T/C is, setting by setting: (dose: 1.87 mg/kg/injection, schedule: Q01DX009 (ip), vehicle: other) 106 % of control; (dose: 3.75 mg/kg/injection, schedule: Q01DX009 (ip), vehicle: other) 123 % of control; (dose: 10.0 mg/kg/injection, schedule: Q01DX001 (ip), vehicle: other) 106 % of control; (dose: 15.0 mg/kg/injection, schedule: Q01DX009 (ip), vehicle: other) 153 % of control.

Consider `CCOC(=O)CNS(=O)(=O)c1ccccc1`, for which the T/C under setting [1] is 98 % of control, the T/C under setting [2] is 101 % of control and the T/C under setting [3] is 101 % of control.

As for `CC(=O)NC(c1ccccc1)C(C)C` (stereo not drawn), the T/C by setting is: under setting [7], 92 % of control; under setting [8], 103 % of control.

With `O=C1CC(=O)N2CCCCC2N1` (stereo not drawn), the T/C (dose: 100.0 mg/kg/injection, schedule: Q01DX001 (ip), vehicle: alcohol) is 106 % of control; the T/C (dose: 200.0 mg/kg/injection, schedule: Q01DX001 (ip), vehicle: alcohol) is 103 % of control; the T/C (dose: 400.0 mg/kg/injection, schedule: Q01DX001 (ip), vehicle: alcohol) is 110 % of control.

For `CCCCCCCCCCCN1C(=O)c2ccccc2S1(=O)=O`, the T/C runs as follows: (dose: 222.0 mg/kg/injection, schedule: Q01DX Z (ip), vehicle: methylcellulose (MC)) 91 % of control; (dose: 333.0 mg/kg/injection, schedule: Q01DX Z (ip), vehicle: methylcellulose (MC)) 105 % of control; (dose: 500.0 mg/kg/injection, schedule: Q01DX Z (ip), vehicle: methylcellulose (MC)) 102 % of control.

As for `COC1OC2COC(c3ccccc3)OC2C(OC(=S)SCc2ccccc2)C1OC(=O)c1ccccc1` (stereo not drawn), the T/C (dose: 25.0 mg/kg/injection, schedule: Q04DX002 (ip), vehicle: saline) was 100 % of control; the T/C (dose: 50.0 mg/kg/injection, schedule: Q04DX002 (ip), vehicle: saline) is 88 % of control; the T/C (dose: 100.0 mg/kg/injection, schedule: Q04DX002 (ip), vehicle: saline) was 98 % of control; the T/C (dose: 200.0 mg/kg/injection, schedule: Q04DX002 (ip), vehicle: Klucel (hydroxypropylcellulose) (HPC)) is 86 % of control; the T/C (dose: 400.0 mg/kg/injection, schedule: Q04DX002 (ip), vehicle: Klucel (hydroxypropylcellulose) (HPC)) was 90 % of control.

With `Cc1ccc(NP(=O)(Oc2c(F)c(F)c(F)c(F)c2F)N(CCCl)CCCl)cc1` (stereo not drawn), the T/C was 100 % of control (dose: 62.5 mg/kg/injection, schedule: Q01DX001 (ip), vehicle: other); 112 % of control (dose: 125.0 mg/kg/injection, schedule: Q01DX001 (ip), vehicle: other); 106 % of control (dose: 250.0 mg/kg/injection, schedule: Q01DX001 (ip), vehicle: other); 108 % of control (dose: 500.0 mg/kg/injection, schedule: Q01DX001 (ip), vehicle: other).

Take `CCOC(=S)SCC(=O)c1cccc([N+](=O)[O-])c1`: the T/C was 107 % of control under setting [1], 103 % of control under setting [2] and 101 % of control under setting [3].

Regarding `O=C(O)C(CCCCC1CCCCC1)CCC1CCCCC1` (stereo not drawn), the T/C under setting [7] was 97 % of control, the T/C under setting [8] is 99 % of control and the T/C under setting [9] was 94 % of control.

On to `Clc1ccc(N=Cc2ccc3c(c2)OCO3)c(Cl)c1`, for which the T/C (dose: 100.0 mg/kg/injection, schedule: Q01DX009 (ip), vehicle: Klucel (hydroxypropylcellulose) (HPC)) was 94 % of control; the T/C (dose: 200.0 mg/kg/injection, schedule: Q01DX009 (ip), vehicle: Klucel (hydroxypropylcellulose) (HPC)) was 93 % of control; the T/C (dose: 400.0 mg/kg/injection, schedule: Q01DX009 (ip), vehicle: Klucel (hydroxypropylcellulose) (HPC)) was 96 % of control.

In the case of `N#CC(C#N)=C(C#N)C#N`, the T/C is 95 % of control (dose: 3.13 mg/kg/injection, schedule: Q01DX009 (ip), vehicle: Klucel (hydroxypropylcellulose) (HPC)) and 91 % of control (dose: 6.25 mg/kg/injection, schedule: Q01DX009 (ip), vehicle: Klucel (hydroxypropylcellulose) (HPC)).
